Results: PMC11284787, “Ligand-Directed Labeling of the Adenosine A1 Receptor in Living Cells” (Journal of Medicinal Chemistry, 2024)

How the values were obtained:
TS-SNAP-A1AR = system: T1, TS-SNAP-A1AR; experiment: SDS-PAGE in-gel fluorescence of labeled TS-SNAP-A1AR; format: cell-based; details: HEK293G TS-SNAP-A1AR cells, 300 nM 11 or 130 nM 12 (then 1 μM Met-Tet-SulfoCy5), 2 h; band at ca. 59.1 kDa
T1 construct: signal peptide of the murine 5HT3A receptor (N); expressed in transfected cells; receptor purified on MagStrep beads after labelling in cells
Description: Figure 3 Molecular pharmacology and biochemical characterization of 11 and 12. NanoBRET ligand-binding data were measured in HEK293 cells stably expressing the human NL-A1AR (A–C) or rat NL-A1AR (D–F). […] Data were normalized to maximal BRET signals in the absence of unlabeled competing ligands (total binding, TB). (C, F) NanoBRET dissociation kinetics experiments with 11 (SulfoCy5) performed in human and rat NL-A1AR HEK293T cells, respectively. Cells were treated with 250 nM 11 (SulfoCy5, lilac open circles) for 5 h and CA200645 (black open triangles) for 2 h. […] TS-SNAP-A1AR was purified and separated on an SDS-PAGEgel gel, and direct Cy5 fluorescence was visualized using in-gel fluorescence. […]
The small reduction in the BRET signal observed toward the end of the reads could be mostly likely ascribed to substrate (furimazine) consumption. […] To confirm covalent labeling of A1AR by 11 and 12, HEK293G cells stably expressing a Twin-Strep-SNAP-A1AR(TS-SNAP-A1R) construct were treated with 11 or 12 prior to purification, separation by sodium dodecyl sulfate-polyacrylamide gel electrophoresis (SDS-PAGE) and visualization of labeled samples by in-gel fluorescence (Figure 3G). […]
Autocorrelation curves (AC) were constructed from fluorescence fluctuation traces and analysed within Zen Black (2012) software. […]

NL-hA3AR = target: T2, NL-hA3AR (Homo sapiens, UniProt P0DMS8); experiment: cell-based; format: binding; details: CA200645 (25 nM) tracer, HEK293T cells, mean ± SEM; read-out: affinity values pKi, NL-hA3AR (converted)
T2 construct: expressed in transfected cells
T2 sequence (P0DMS8 1-318): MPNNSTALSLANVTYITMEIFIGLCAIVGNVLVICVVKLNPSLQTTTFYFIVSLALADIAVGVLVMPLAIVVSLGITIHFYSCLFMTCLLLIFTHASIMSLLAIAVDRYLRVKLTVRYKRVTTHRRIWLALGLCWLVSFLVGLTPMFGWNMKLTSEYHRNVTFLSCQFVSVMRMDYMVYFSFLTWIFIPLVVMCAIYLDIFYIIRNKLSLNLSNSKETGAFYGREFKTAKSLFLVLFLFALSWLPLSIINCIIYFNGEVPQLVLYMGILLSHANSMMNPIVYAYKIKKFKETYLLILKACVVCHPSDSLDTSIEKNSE

SMILES | in-gel Cy5 fluorescence band of SulfoCy5-labeled TS-SNAP-A1AR (TS-SNAP-A1AR) | Ki (NL-hA3AR) [µM]
CCCCn1c(=O)c2[nH]c(C34CCC(C(=O)NCCNC(=O)CCNC(=O)c5ccc(OC(=O)CCCCC[N+]6=C(/C=C/C=C/C=C7/N(C)c8ccc(S(=O)(=O)O)cc8C7(C)C)C(C)(C)c7cc(S(=O)(=O)[O-])ccc76)c(F)c5)(CC3)CC4)nc2n(CCCC)c1=O [Compound 11, 1-(6-(4-((3-((2-(4-(1,3-Dibutyl-2,6-dioxo-2,3,6,7-tetrahydro-1H-purin-8-yl)bicyclo[2.2.2]octane-1-carboxamido)ethyl)amino)-3-oxopropyl)carbamoyl)-2-fluorophenoxy)-6-oxohexyl)-3,3-dimethyl-2-((1E,3E)-5-((E)-1,3,3-trimethyl-5-sulfoindolin-2-ylidene)penta-1,3-dien-1-yl)-3H-indol-1-ium-5-sulfonate] | strong band | 
CCCCn1c(=O)c2[nH]c(C34CCC(C(=O)NCCNC(=O)CCNC(=O)c5ccc(OC(=O)CCC(=O)NCCOCCOCCNC(=O)O[C@H]6CC/C=C/CCC6)c(F)c5)(CC3)CC4)nc2n(CCCC)c1=O [Compound 12, 4-((3-((2-(4-(1,3-Dibutyl-2,6-dioxo-2,3,6,7-tetrahydro-1H-purin-8-yl)bicyclo[2.2.2]octane-1-carboxamido)ethyl)amino)-3-oxopropyl)carbamoyl)-2-fluorophenyl (R,E)-1-(Cyclooct-4-en-1-yloxy)-1,12-dioxo-5,8-dioxa-2,11-diazapentadecan-15-oate] | strong band | > 10
